From patent US6693216B2, “Calcium double salts” (Nutrinova Nutrition Specialties & Food Ingredients GmbH, priority 2000, dated 2004)
Where two headings read alike, the source gives them in different places.

Key:
Details in all cases: Part II, 1 g/l in apple juice pH 4.5, 25° C.
[1] = tested on: Gram-negative bacteria
[2] = tested on: Bacilli
[3] = tested on: Gram-positive bacteria
[4] = tested on: Lactic acid bacteria
[5] = tested on: Molds I
[6] = tested on: Acetic acid bacteria
[7] = tested on: Molds II
[8] = tested on: Thermophilic bacilli
[9] = tested on: Clostridia
[10] = tested on: Yeasts
[11] = 1 day after inoculation (2.7 × 10^4)
[12] = 3 days after inoculation (2.7 × 10^4)
[13] = 7 days after inoculation (2.7 × 10^4)
[14] = 14 days after inoculation (2.7 × 10^4)

In the case of Calcium Sorbate, the “Number of surviving microorganisms per g of contaminated sample, Gram-negative bacteria” value [1, 11] was 1.7 × 10^4 CFU/g, the “Number of surviving microorganisms per g of contaminated sample, Gram-negative bacteria” value [1, 12] was 1.0 × 10^4 CFU/g and the “Number of surviving microorganisms per g of contaminated sample, Gram-negative bacteria” value [1, 13] was 1.9 × 10^3 CFU/g. For the same substance, the “Number of surviving microorganisms per g of contaminated sample, Gram-negative bacteria” value [1, 14] was 2.7 × 10^3 CFU/g, the “Number of surviving microorganisms per g of contaminated sample, Bacilli” value (“Number … per g of contaminated sample, Bacilli” for short) ([2]; 1 day after inoculation (3.3 × 10^4)) was 2.8 × 10^3 CFU/g and the “Number … per g of contaminated sample, Bacilli” value ([2]; 3 days after inoculation (3.3 × 10^4)) was 1.8 × 10^3 CFU/g. The “Number … per g of contaminated sample, Bacilli” value ([2]; 7 days after inoculation (3.3 × 10^4)) was 1.3 × 10^3 CFU/g, the “Number … per g of contaminated sample, Bacilli” value ([2]; 14 days after inoculation (3.3 × 10^4)) was 1.2 × 10^3 CFU/g and the “Number of surviving microorganisms per g of contaminated sample, Gram-positive bacteria” value ([3]; 1 day after inoculation (2.1 × 10^4)) was 2.1 × 10^4 CFU/g. The “Number of surviving microorganisms per g of contaminated sample, Gram-positive bacteria” value ([3]; 3 days after inoculation (2.1 × 10^4)) was 6.4 × 10^3 CFU/g, the “Number of surviving microorganisms per g of contaminated sample, Gram-positive bacteria” value ([3]; 7 days after inoculation (2.1 × 10^4)) was <10 CFU/g and the “Number of surviving microorganisms per g of contaminated sample, Gram-positive bacteria” value ([3]; 14 days after inoculation (2.1 × 10^4)) was <10 CFU/g. For the same substance, the “Number of surviving microorganisms per g of contaminated sample, Lactic acid bacteria” value [4, 11] was 3.4 × 10^3 CFU/g, the “Number of surviving microorganisms per g of contaminated sample, Lactic acid bacteria” value [4, 12] was 2.0 × 10^3 CFU/g and the “Number of surviving microorganisms per g of contaminated sample, Lactic acid bacteria” value [4, 13] was <100 CFU/g. For the same substance, the “Number of surviving microorganisms per g of contaminated sample, Lactic acid bacteria” value [4, 14] was <10 CFU/g, the “Number of surviving microorganisms per g of contaminated sample, Molds I” value ([5]; 1 day after inoculation (2.2 × 10^4)) was 3.9 × 10^3 CFU/g and the “Number of surviving microorganisms per g of contaminated sample, Molds I” value ([5]; 3 days after inoculation (2.2 × 10^4)) was <100 CFU/g. For the same substance, the “Number of surviving microorganisms per g of contaminated sample, Molds I” value ([5]; 7 days after inoculation (2.2 × 10^4)) was <10 CFU/g, the “Number of surviving microorganisms per g of contaminated sample, Molds I” value ([5]; 14 days after inoculation (2.2 × 10^4)) was <10 CFU/g and the “Number of surviving microorganisms per g of contaminated sample, Acetic acid bacteria” value ([6]; 1 day after inoculation (2.8 × 10^4)) was 1.5 × 10^4 CFU/g. For the same substance, the “Number of surviving microorganisms per g of contaminated sample, Acetic acid bacteria” value ([6]; 3 days after inoculation (2.8 × 10^4)) was 1.4 × 10^4 CFU/g, the “Number of surviving microorganisms per g of contaminated sample, Acetic acid bacteria” value ([6]; 7 days after inoculation (2.8 × 10^4)) was 2.0 × 10^4 CFU/g and the “Number of surviving microorganisms per g of contaminated sample, Acetic acid bacteria” value ([6]; 14 days after inoculation (2.8 × 10^4)) was 1.3 × 10^5 CFU/g. The “Number of surviving microorganisms per g of contaminated sample, Molds II” value (“Number … per g of contaminated sample, Molds II” below) ([7]; 1 day after inoculation (2.5 × 10^4)) was 6.5 × 10^3 CFU/g, the “Number … per g of contaminated sample, Molds II” value ([7]; 3 days after inoculation (2.5 × 10^4)) was <100 CFU/g and the “Number … per g of contaminated sample, Molds II” value ([7]; 7 days after inoculation (2.5 × 10^4)) was <10 CFU/g. The “Number … per g of contaminated sample, Molds II” value ([7]; 14 days after inoculation (2.5 × 10^4)) was <10 CFU/g, the “Number of surviving microorganisms per g of contaminated sample, Thermophilic bacilli” value ([8]; 1 day after inoculation (1.3 × 10^4)) was 1.4 × 10^3 CFU/g and the “Number of surviving microorganisms per g of contaminated sample, Thermophilic bacilli” value ([8]; 3 days after inoculation (1.3 × 10^4)) was 5.0 × 10^2 CFU/g. For the same substance, the “Number of surviving microorganisms per g of contaminated sample, Thermophilic bacilli” value ([8]; 7 days after inoculation (1.3 × 10^4)) was <10 CFU/g, the “Number of surviving microorganisms per g of contaminated sample, Thermophilic bacilli” value ([8]; 14 days after inoculation (1.3 × 10^4)) was <10 CFU/g and the “Number of surviving microorganisms per g of contaminated sample, Clostridia” value ([9]; 1 day after inoculation (2.9 × 10^4)) was 2.2 × 10^3 CFU/g. The “Number of surviving microorganisms per g of contaminated sample, Clostridia” value ([9]; 3 days after inoculation (2.9 × 10^4)) was <100 CFU/g, the “Number of surviving microorganisms per g of contaminated sample, Clostridia” value ([9]; 7 days after inoculation (2.9 × 10^4)) was <10 CFU/g and the “Number of surviving microorganisms per g of contaminated sample, Clostridia” value ([9]; 14 days after inoculation (2.9 × 10^4)) was <10 CFU/g. For the same substance, the “Number of surviving microorganisms per g of contaminated sample, Yeasts” value (“Number … per g of contaminated sample, Yeasts” below) ([10]; 1 day after inoculation (2.6 × 10^4)) was 2.3 × 10^4 CFU/g, the “Number … per g of contaminated sample, Yeasts” value ([10]; 3 days after inoculation (2.6 × 10^4)) was 1.0 × 10^4 CFU/g and the “Number … per g of contaminated sample, Yeasts” value ([10]; 7 days after inoculation (2.6 × 10^4)) was <100 CFU/g. For the same substance, the “Number … per g of contaminated sample, Yeasts” value ([10]; 14 days after inoculation (2.6 × 10^4)) was <10 CFU/g.
